Results as given in PubChem BioAssay (NCI).
“And” between values parts separate entries of the source, which are not always exact repeats. Identical values can stand only once.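 Cultured in 96-well plates, cells were exposed to test compound for 48 hours across five concentrations. GI50 marks 50% less growth. At the TGI there is no net growth.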

Tests used:
Assay in all cases: growth of human tumour cells (NCI), 48 h
[1] = test system: SK-OV-3 ovarian
[2] = test system: NCI-H23 lung
[3] = test system: SN12C renal
[4] = test system: MCF7 breast
[5] = test system: NCI-H226 lung
[6] = test system: KM12 colon
[7] = test system: SK-MEL-5 melanoma
[8] = test system: UACC-257 melanoma
[9] = test system: ACHN renal
[10] = test system: SR leukemia

## CCOC(=O)C1=C(C(C)=O)CSC(c2ccccc2)=N1
[1]
  TGI: > 100 µM
[2]
  TGI: > 100 µM
[3]
  TGI: > 100 µM
[4]
  TGI: > 100 µM
[5]
  TGI: > 100 µM
[6]
  TGI: > 100 µM
[7]
  TGI: > 100 µM
[8]
  TGI: > 100 µM

## O=C1CCSSCCC(=O)NCCN1
[1]
  TGI: > 100 µM
[2]
  TGI: > 100 µM
[9]
  TGI: > 100 µM
[10]
  TGI: > 100 µM
[3]
  TGI: > 100 µM
[5]
  TGI: > 100 µM
[6]
  TGI: > 100 µM
[7]
  TGI: > 100 µM
[8]
  TGI: > 100 µM

## COP(=O)(O)/C=C/C(NC(=O)C(Cl)(Cl)Cl)c1ccccc1 (configuration not stated)
[1]
  TGI: > 100 µM
[2]
  TGI: > 100 µM
[9]
  TGI: > 100 µM
[3]
  TGI: > 100 µM
[4]
  TGI: > 100 µM
[5]
  TGI: > 100 µM
[6]
  TGI: > 100 µM
[7]
  TGI: > 100 µM
[8]
  TGI: > 100 µM

## C/C(=N/NC(N)=S)c1ccc2ccccc2c1
[1]
  TGI: 51.6 µM
[2]
  TGI: > 100 µM
[9]
  TGI: > 100 µM
[10]
  TGI: > 100 µM
[3]
  TGI: > 100 µM
[5]
  TGI: > 100 µM
[6]
  TGI: > 100 µM
[7]
  TGI: > 100 µM
[8]
  TGI: > 100 µM

## O=C(O)C1CC(c2ccc(F)cc2)=Nc2ccc(F)cc2S1 (configuration not stated)
[1]
  TGI: > 100 µM
[2]
  TGI: > 100 µM
[9]
  TGI: > 100 µM
[3]
  TGI: > 100 µM
[4]
  TGI: > 100 µM
[5]
  TGI: > 100 µM
[6]
  TGI: > 100 µM
[7]
  TGI: > 100 µM
[8]
  TGI: > 100 µM

## COc1cc(/C=C/C(=O)O)ccc1C(=O)O/C=C/c1ccccc1
[1]
  TGI: > 100 µM
[2]
  TGI: > 100 µM
[3]
  TGI: > 100 µM
[4]
  TGI: > 100 µM
[5]
  TGI: > 100 µM
[6]
  TGI: > 100 µM
[7]
  TGI: > 100 µM
[8]
  TGI: > 100 µM

## CCN(CC)CCNc1ccc2nnn3c4ccc(OC)cc4c(=O)c1c23
[1]
  TGI: 34.6 µM
[2]
  TGI: 20.9 µM
[9]
  TGI: 21.7 µM
[10]
  TGI: 7.21 µM
[3]
  TGI: 19.9 µM
[5]
  TGI: 20 µM
[6]
  TGI: 13.9 µM
[7]
  TGI: 25.5 µM
[8]
  TGI: 25.1 µM

## CSC1CC2C(CC1(C)O)C2(C)C (configuration not stated)
[1]
  TGI: > 100 µM
[2]
  TGI: > 100 µM
[9]
  TGI: > 100 µM
[3]
  TGI: > 100 µM
[5]
  GI50: 38.5 µM and > 100 µM
  TGI: > 100 µM
[6]
  TGI: > 100 µM
[7]
  TGI: > 100 µM
[8]
  GI50: 40.8 µM and > 100 µM
  TGI: > 100 µM

## CC(=O)NS(=O)(=O)c1ccc(NC(=O)c2c3ccccc3nc3ccccc23)cc1
[1]
  TGI: > 100 µM
[2]
  TGI: > 100 µM
[9]
  TGI: > 100 µM
[10]
  TGI: > 100 µM
[3]
  TGI: > 100 µM
[4]
  TGI: > 100 µM
[6]
  TGI: > 100 µM
[7]
  TGI: > 100 µM
[8]
  TGI: > 100 µM

## COC(=O)c1c(C)cccc1/C=C1/Cc2c(C)cccc2C1=O
[1]
  TGI: > 100 µM
[2]
  TGI: > 100 µM
[9]
  TGI: > 100 µM
[3]
  TGI: > 100 µM
[4]
  TGI: > 100 µM
[5]
  TGI: > 100 µM
[6]
  TGI: > 100 µM
[7]
  TGI: > 100 µM
[8]
  TGI: > 100 µM

## COc1ccc(/C(=N/O)c2ccccc2-c2nc3ccccc3c(=O)n2-c2ccc(S(=O)(=O)Nc3ncccn3)cc2)cc1C
[1]
  TGI: 20.8 µM
[2]
  TGI: 27.6 µM
[9]
  TGI: 25.1 µM
[10]
  TGI: 31 µM
[3]
  TGI: > 31.6 µM
[4]
  TGI: 22.2 µM
[6]
  TGI: > 31.6 µM
[7]
  TGI: 25.4 µM
[8]
  TGI: 30.5 µM

## CCC(C(=O)O)c1ccc(OCc2ccccc2)cc1 (configuration not stated)
[1]
  TGI: > 100 µM
[2]
  TGI: > 100 µM
[9]
  TGI: > 100 µM
[10]
  TGI: > 100 µM
[3]
  TGI: > 100 µM
[5]
  TGI: > 100 µM
[6]
  TGI: > 100 µM
[7]
  TGI: > 100 µM
[8]
  TGI: > 100 µM

## NC(=O)C(=O)N/N=C1/c2ccccc2CC1C1(O)C(=O)Nc2c(Cl)cc(Cl)cc21 (configuration not stated)
[1]
  TGI: > 100 µM
[2]
  TGI: > 100 µM
[9]
  TGI: > 100 µM
[10]
  TGI: > 100 µM
[3]
  TGI: > 100 µM
[5]
  TGI: > 100 µM
[6]
  TGI: > 100 µM
[7]
  TGI: > 100 µM
[8]
  TGI: > 100 µM

## CCCCCCCCCC[C@H](O)[C@H]1CC[C@H]([C@H]2CC[C@H]([C@H](O)CC[C@H](O)CCCCCCC[C@@H](O)CC3=C[C@H](C)OC3=O)O2)O1
[2]
  TGI: > 100 µM
[9]
  GI50: 10 µM
  TGI: > 100 µM
[3]
  TGI: > 100 µM
[4]
  GI50: 3.98 µM
  TGI: > 100 µM
[5]
  GI50: > 100 µM
  TGI: > 100 µM
[6]
  GI50: 38.1 µM
  TGI: > 100 µM
[7]
  TGI: 3.93 µM
[8]
  TGI: > 100 µM

## CCOC1CC(=O)c2c(Br)sc(Br)c21 (configuration not stated)
[1]
  TGI: 30.4 µM
[2]
  TGI: 37.4 µM
[9]
  TGI: 36.7 µM
[10]
  TGI: 60.3 µM
[3]
  TGI: 58.4 µM
[4]
  TGI: 40.5 µM
[6]
  TGI: 37.2 µM
[7]
  TGI: > 100 µM
[8]
  TGI: 32.2 µM

## COc1cc(/C=C2\C(=O)N(C(=O)Cc3ccccc3)N=C2C)ccc1O
[2]
  TGI: > 100 µM
[9]
  TGI: > 100 µM
[10]
  TGI: > 100 µM
[3]
  TGI: > 100 µM
[5]
  TGI: > 100 µM
[6]
  TGI: > 100 µM
[7]
  TGI: > 100 µM
[8]
  TGI: > 100 µM

## COc1cc2c(cc1OC)C(N(C)C)C(c1ccccc1)=C2Cl (configuration not stated)
[1]
  TGI: 45.9 µM
[2]
  TGI: 32.4 µM
[10]
  TGI: 50.4 µM
[3]
  TGI: 43.3 µM
[5]
  TGI: 56.4 µM
[6]
  TGI: 57.9 µM
[8]
  TGI: 40.5 µM
